Experimental data: patent publication US20250327028A1, “ENGINEERED PLATELETS AS TARGETED PROTEIN DEGRADERS” (Wisconsin Alumni Research Foundation, priority 2024, published 2025)

Tests used:
BRD4 [1] = biological target: T1, BRD4 (Mus musculus, UniProt Q9ESU6); experiment: Immunoblot analysis of BRD4 degradation in 4T1 cells after free HAC treatment; type: cell-based, murine; conditions: 4T1 cells
T1 construct: endogenous in cells; host or cells: 4T1
Description: (§1) Immunoblot analysis: Immunoblot analysis was used to evaluate the expression of BRD4, HSP90, HSP90a, and PD-L1 in 4T1, WT MDA-MB-231, HSP90α-KO MDA-MB-231 or PEA-10 cells after various treatments and also served as the detection method for IP or co-IP experiments. The procedures for preparing IP or co-IP samples were indicated in the relevant experimental parts.
(§2) Sample preparation for various cancer cells after free HAC treatment: Various cells, including 4T1, WT MDA-MB-231, HSP90α-KO MDA-MB-231, or PEA-10 cells, were seeded in 6-well culture plates with a density of 5×10^4 cells in each well and cultured for 24 h. Then, if HAI pretreatment was performed, the cells were incubated in the HAI-containing blank medium at different concentrations for 2 h and washed with PBS twice before the following treatments. The medium in the corresponding wells was replaced with 1 mL of blank medium containing the DMSO vehicle, HACs, or the combinations of various free ligands at the predetermined concentrations. After incubation for the indicated time points, cells were washed with PBS and lysed on ice with the relevant lysis buffer containing PMSF (1 mM) and the phosphatase inhibitor cocktail for 30 min. As for the conditioned medium (CM), the culturing complete medium of the corresponding cancer cells in each well was collected after 24-h incubation and subjected to centrifugation at 2000 rpm for 5 min to obtain the supernatant. The filtrate of the supernatants was collected following filtration over a 0.45 μm filter, serving as the CM. Regarding the cell samples for BRD4 detection, the lysis buffer containing HEPES-KOH (pH=7.5, 10 mM), NaCl (500 mM), EDTA (5 mM), NP-40 (1%), and SDS (0.1%) was used with the indicated PMSF and phosphatase inhibitor cocktail. As for PD-L1 detection, RIPA buffer (Thermo Fisher Scientific/J63306.AP) was used with the indicated PMSF and phosphatase inhibitor cocktail.
General procedures for immunoblot analysis: After a 30-min lysis, the lysates were centrifuged at 10,000 g for 10 minutes at 4° C., and the corresponding supernatants were collected, followed by quantification of the total proteins in the supernatant through the BCA assay. Afterward, the proteins in the supernatant were mixed with the loading buffer and heated at 95° C. for 15 min. Equal amounts of proteins from different samples ([…]) were loaded into the Bis-Tris gel formulated with Bis-Tis buffer, 30% acrylamide/Bis, 10% ammonium persulfate (APS) solution, and TEMED. The separated proteins were transferred to polyvinylidene fluoride (PVDF) membranes before the membranes were blocked with 5% nonfat milk in PBS-T. Next, the PVDF membranes were incubated with primary antibodies overnight at 4° C., if necessary, followed by the incubation with the goat-anti-rabbit IgG H & L (HRP) secondary antibodies at room temperature for 2 h. Finally, the bands were treated with electrochemiluminescence (ECL) western blot substrate, detected by the iBright™ imaging system and quantified with ImageJ software. 8% Bis-Tris gels were used for BRD4 detection, and 10% gels were adopted to analyze PD-L1.

BRD4 [2] = biological target: T1, BRD4; experiment: Immunoblot analysis of BRD4 degradation in 4T1 cells after DePLT or PMP treatment; type: cell-based, murine; conditions: 2-h HAI pretreatment, 1×10^8 iDePLTs 12 h
Procedure: as §1
(§3) Sample preparation for 4T1 cells after DePLT treatment: 4T1 cells were seeded in 6-well culture plates with a density 5×10^4 cells in each well and cultured for 24 h. The engineered platelets, including iDePLT and eDePLT, were generated by incubating the fresh platelets in PBS containing iHAC or eHAC at 20 μM for 2 h. The fresh nPLT was used as the control. Then, if HAI pretreatment was performed, the cells were incubated in the HAI-containing blank medium at different concentrations for 2 h and washed with PBS twice before the following treatments. […]
(§4) General procedures for immunoblot analysis: After a 30-min lysis, the lysates were centrifuged at 10,000 g for 10 minutes at 4° C., and the corresponding supernatants were collected, followed by quantification of the total proteins in the supernatant through the BCA assay. […] Finally, the bands were treated with electrochemiluminescence (ECL) western blot substrate, detected by the iBright™ imaging system and quantified with ImageJ software. […]

PD-L1 = biological target: T2, PD-L1 (Mus musculus, UniProt Q9EP73); experiment: Immunoblot analysis of PD-L1 degradation in 4T1 cells after eDePLT treatment; type: cell-based, murine; conditions: 2-h HAI pretreatment, 1×10^8 eDePLTs 8 h
T2 construct: endogenous in cells; host or cells: 4T1
T2 sequence (Q9EP73 19-290): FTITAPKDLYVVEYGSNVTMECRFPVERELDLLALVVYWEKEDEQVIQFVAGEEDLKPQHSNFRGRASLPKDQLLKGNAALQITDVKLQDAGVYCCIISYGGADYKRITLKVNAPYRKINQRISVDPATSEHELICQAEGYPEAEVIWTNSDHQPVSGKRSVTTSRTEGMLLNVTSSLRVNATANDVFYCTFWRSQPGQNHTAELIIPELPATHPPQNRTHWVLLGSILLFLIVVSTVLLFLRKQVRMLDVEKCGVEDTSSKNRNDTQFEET
Procedure: as §1, §3, §4

WT MDA-MB-231 cells = experiment: In-gel fluorescence detection of NA-647 internalization in WT MDA-MB-231 cells; type: cell-based, human; conditions: WT MDA-MB-231, 2-h HAI at various concentrations prior to HAC-B 5 μM 4 h
Procedure: In-gel fluorescence detection: In-gel fluorescence was mainly used to investigate the internalization of NeutrAvidin™_647 in HAC-B-treated cancer cells.
Sample preparation: 4T1 or WT MDA-MB-231 cells were seeded in 6-well culture plates with a density of 5×10^4 cells in each well and cultured for 24 h. If HAI pretreatment was performed, the cells were incubated in the HAI-containing blank medium at different concentrations for 2 h and washed with PBS twice before the following treatments. Then, the cells were treated with free HAC-B or the combinations of various ligands at the indicated concentrations for the predetermined time points. Next, the drug-containing medium was removed, and PBS was used to wash the cells twice, followed by incubating the cells in the blank medium containing NeutrAvidin™ DyLight™ 650 (NA-647, Invitrogen/84607) at 0.5 μM for 1 h. Finally, the cells were washed with PBS and lysed on ice with the RIPA buffer containing PMSF (1 mM) and the phosphatase inhibitor cocktail for 30 min. A s for the 4T1 cells cotreated with NA-647 and HAC-B, the cells after 24-h incubation were treated with the blank medium containing NA-647 at 0.5 μM and HAC-B at various concentrations for 2 h before cell lysis.
In-gel fluorescence imaging: After 30-min lysis, the lysates were centrifuged at 10,000 g for 10 minutes at 4° C., and the corresponding supernatants were collected, followed by quantification of the total proteins in the supernatant through the BCA assay. Afterward, the proteins in the supernatant were mixed with ¼ volume of 5× sample buffer formulated by Tris-HCl (pH 6.8, 312.5 mM), sucrose (25%), SDS (10%), bromophenol blue (0.025%), and dithiothreitol (DTT, 250 mM). After incubation for 1 h at room temperature, equal amounts of proteins from different samples ([…] per lane) were loaded into the 12% Bis-Tris gel. After the proteins were separated, the gels were subjected to fluorescence imaging with the ChemiDoc™ MP imaging system (Bio-Rad).

BRD4 [3] = biological target: T3, BRD4 (Homo sapiens, UniProt O60885); experiment: Immunoblot analysis of BRD4 degradation in WT MDA-MB-231 cells after free HAC treatment; type: cell-based; conditions: lower or higher effective concentrations, 12 h
T3 construct: endogenous in cells; host or cells: WT MDA-MB-231 (ATCC)
Description: as §1
as §2, with “Regarding the cell samples for BRD4 detection, the lysis buffer containing HEPES-KOH (pH=7.5, 10 mM), NaCl (500 mM), EDTA (5 mM), NP-40 (1%), and SDS (0.1%) was used with the indicated PMSF and phosphatase inhibitor cocktail. As for PD-L1 detection, RIPA buffer (Thermo Fisher Scientific/J63306.AP) was used with the indicated PMSF and phosphatase inhibitor cocktail.” left out
as §4

BRD4 degradation compared to iHAC (BRD4 [3])	BRD4 degradation compared to iHAC (BRD4 [1]; lower or higher effective concentrations, 12 h)	SMILES	BRD4 degradation by iHAC after HAI pretreatment (BRD4 [1]; 2-h HAI pretreatment at various concentrations, then iHAC 10 μM 12 h)	BRD4 downregulation by iDePLT after HAI pretreatment of target cells (BRD4 [2])	PD-L1 degradation by eDePLT after HAI pretreatment of target cells (PD-L1)	NA-647 uptake by HAC-B after HAI preincubation (WT MDA-MB-231 cells)
–	–	Nc1ncnc2c1nc(Sc1cc3c(cc1I)OCO3)n2CCCNCc1cccc(S(=O)(=O)F)c1 [HAI, 3-(((3-(6-amino-8-((6-iodobenzo[d][1,3]dioxol-5-yl)thio)-9H-purin-9-yl)propyl)amino)methyl)benzenesulfonyl fluoride]	inferior BRD4 degradation efficacy	failed to relieve BRD4 downregulation	failed to rescue the PD-L1 degradation	largely compromised NA-647 uptake
almost no substantial BRD4 degradation	almost no substantial BRD4 degradation	Cc1sc2c(c1C)C(c1ccc(Cl)cc1)=N[C@H](CC(=O)NCc1cn(CCCC(=O)N(CC#N)S(=O)(=O)c3ccc(C(=O)NCCCn4c(Sc5cc6c(cc5I)OCO6)nc5c(N)ncnc54)cc3)nn1)c1nnc(C)n1-2 [iHACepi, (R)—N-(3-(6-amino-8-((6-iodobenzo[d][1,3]dioxol-5-yl)thio)-9H-purin-9-yl)propyl)-4-(N-(4-(4-((2-(4-(4-chlorophenyl)-2,3,9-trimethyl-6H-thieno[3,2-f][1,2,4]triazolo[4,3-a][1,4]diazepin-6-yl)acetamido)methyl)-1H-1,2,3-triazol-1-yl)butanoyl)-N-(cyanomethyl)sulfamoyl)benzamide]	–	–	–	–
